Results published in PubChem BioAssay AID330 (DTP/NCI, 2004).
Several values for one entry are separate records, joined by “and”; a condition that tells them apart may be missing. Equal values may be shown once. Toxic doses and inconclusive results are not listed.

Tested on: P388 leukemia ip, CD2F1 mice, survival T/C
Assay: NCI In Vivo Anticancer Drug Screen. Data for tumor model P388 Leukemia (intraperitoneal) in CD2F1 (CDF1) mice
Settings: endpoint: median survival time, higher = longer survival
Procedure, shortened: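 Mice carrying the transplanted tumor received test compound or vehicle. Survival was recorded in each group, and the value is the treated-group measurement divided by that of the vehicle-treated control group.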

[1] = dose: 50.0 mg/kg/injection, schedule: Q01DX009 (ip), vehicle: saline with Tween-80
[2] = dose: 100.0 mg/kg/injection, schedule: Q01DX009 (ip), vehicle: saline with Tween-80
[3] = dose: 200.0 mg/kg/injection, schedule: Q01DX009 (ip), vehicle: saline with Tween-80
[4] = dose: 50.0 mg/kg/injection, schedule: Q01DX009 (ip), vehicle: Klucel (hydroxypropylcellulose) (HPC)
[5] = dose: 100.0 mg/kg/injection, schedule: Q01DX009 (ip), vehicle: Klucel (hydroxypropylcellulose) (HPC)
[6] = dose: 200.0 mg/kg/injection, schedule: Q01DX009 (ip), vehicle: Klucel (hydroxypropylcellulose) (HPC)
[7] = dose: 6.25 mg/kg/injection, schedule: Q01DX009 (ip), vehicle: saline
[8] = dose: 12.5 mg/kg/injection, schedule: Q01DX009 (ip), vehicle: saline
[9] = dose: 50.0 mg/kg/injection, schedule: Q01DX009 (ip), vehicle: saline
[10] = dose: 100.0 mg/kg/injection, schedule: Q01DX009 (ip), vehicle: saline
[11] = dose: 12.5 mg/kg/injection, schedule: Q04DX003 (ip), vehicle: saline with Tween-80
[12] = dose: 100.0 mg/kg/injection, schedule: Q04DX003 (ip), vehicle: saline
[13] = dose: 200.0 mg/kg/injection, schedule: Q01DX009 (ip), vehicle: saline
[14] = dose: 200.0 mg/kg/injection, schedule: Q04DX003 (ip), vehicle: saline
[15] = dose: 100.0 mg/kg/injection, schedule: Q01DX001 (ip), vehicle: saline with Tween-80
[16] = dose: 200.0 mg/kg/injection, schedule: Q01DX001 (ip), vehicle: saline with Tween-80
[17] = dose: 50.0 mg/kg/injection, schedule: Q01DX005 (ip), vehicle: saline with Tween-80
[18] = dose: 100.0 mg/kg/injection, schedule: Q01DX005 (ip), vehicle: saline with Tween-80
[19] = dose: 200.0 mg/kg/injection, schedule: Q01DX005 (ip), vehicle: saline with Tween-80
[20] = dose: 50.0 mg/kg/injection, schedule: Q01DX005 (ip), vehicle: Klucel (hydroxypropylcellulose) (HPC)
[21] = dose: 100.0 mg/kg/injection, schedule: Q01DX005 (ip), vehicle: Klucel (hydroxypropylcellulose) (HPC)
[22] = dose: 200.0 mg/kg/injection, schedule: Q01DX005 (ip), vehicle: Klucel (hydroxypropylcellulose) (HPC)

CCCCC(=O)N/N=C/c1ccc([N+](=O)[O-])s1 was tested, and the T/C [1] was 95 % of control, the T/C [2] was 99 % of control and the T/C [3] was 101 % of control.

With Cc1ccc2c(I)cc(I)c(O)c2n1 the T/C [4] was 107 % of control, the T/C [5] was 102 % of control and the T/C [6] was 100 % of control.

O=c1[nH]c(=O)c2ncn(C3OC(CO)C(O)C3O)c2[nH]1.O=c1[nH]c(=O)c2ncn(C3OC(CO)C(O)C3O)c2[nH]1.[NH2-].[NH2-].[Pt+2] (centres undefined) was tested, and the T/C [7] was 105 % of control, the T/C [8] was 110 % of control and 102 % of control and the T/C (dose: 25.0 mg/kg/injection, schedule: Q01DX009 (ip), vehicle: saline) was 92 % of control and 107 % of control. For the same compound, the T/C [9] was 100 % of control and 107 % of control, the T/C (dose: 50.0 mg/kg/injection, schedule: Q04DX003 (ip), vehicle: suspension in saline) was 105 % of control and the T/C [10] was 96 % of control and 116 % of control. For the same compound, the T/C (dose: 100.0 mg/kg/injection, schedule: Q04DX003 (ip), vehicle: suspension in saline) was 110 % of control, the T/C (dose: 200.0 mg/kg/injection, schedule: Q04DX003 (ip), vehicle: suspension in saline) was 120 % of control and the T/C (dose: 400.0 mg/kg/injection, schedule: Q04DX003 (ip), vehicle: water) was 174 % of control.

In the case of CS(=O)(=O)c1nnnn1-c1ccccc1, the T/C [11] is reported as 106 % of control, the T/C (dose: 25.0 mg/kg/injection, schedule: Q04DX003 (ip), vehicle: saline with Tween-80) is reported as 106 % of control and the T/C (dose: 50.0 mg/kg/injection, schedule: Q04DX003 (ip), vehicle: saline with Tween-80) is reported as 102 % of control and 112 % of control. For the same compound, the T/C (dose: 100.0 mg/kg/injection, schedule: Q04DX003 (ip), vehicle: saline with Tween-80) was 105 % of control.

In the case of C/C(=N\NC(=S)N1CCCCCC1)c1ccc[nH]1, the T/C (dose: 100.0 mg/kg/injection, schedule: Q04DX002 (ip), vehicle: Klucel (hydroxypropylcellulose) (HPC)) is reported as 111 % of control, the T/C (dose: 200.0 mg/kg/injection, schedule: Q04DX002 (ip), vehicle: Klucel (hydroxypropylcellulose) (HPC)) is reported as 102 % of control and the T/C (dose: 400.0 mg/kg/injection, schedule: Q04DX002 (ip), vehicle: Klucel (hydroxypropylcellulose) (HPC)) is reported as 107 % of control.

In the case of O=CN(O)CC(=O)O, the T/C [1] is reported as 95 % of control, the T/C (dose: 50.0 mg/kg/injection, schedule: Q04DX003 (ip), vehicle: saline sonified) is reported as 104 % of control and the T/C [2] is reported as 104 % of control. The T/C [10] was 100 % of control, the T/C (dose: 100.0 mg/kg/injection, schedule: Q04DX003 (ip), vehicle: saline sonified) was 100 % of control and the T/C [12] was 100 % of control. For the same compound, the T/C [3] was 95 % of control, the T/C [13] was 109 % of control and the T/C (dose: 200.0 mg/kg/injection, schedule: Q04DX003 (ip), vehicle: saline sonified) was 100 % of control. The T/C [14] was 108 % of control, the T/C (dose: 400.0 mg/kg/injection, schedule: Q01DX009 (ip), vehicle: saline with Tween-80) was 100 % of control and the T/C (dose: 400.0 mg/kg/injection, schedule: Q01DX009 (ip), vehicle: saline) was 100 % of control. For the same compound, the T/C (dose: 400.0 mg/kg/injection, schedule: Q04DX003 (ip), vehicle: saline sonified) was 100 % of control and the T/C (dose: 400.0 mg/kg/injection, schedule: Q04DX003 (ip), vehicle: saline) was 91 % of control.

In the case of COC(=O)Cn1/c(=N\N=C(/C)c2ccc(C)cc2)sc2ccccc21, the T/C [15] is reported as 95 % of control and the T/C [16] is reported as 91 % of control.

In the case of CCN(CC)C1=C/CC/C(c2ccccc2)=N/N=C\1c1ccccc1, the T/C (dose: 60.0 mg/kg/injection, schedule: Q01DX005 (ip), vehicle: Klucel (hydroxypropylcellulose) (HPC)) is reported as 89 % of control, the T/C (dose: 120.0 mg/kg/injection, schedule: Q01DX005 (ip), vehicle: Klucel (hydroxypropylcellulose) (HPC)) is reported as 95 % of control and the T/C (dose: 240.0 mg/kg/injection, schedule: Q01DX005 (ip), vehicle: Klucel (hydroxypropylcellulose) (HPC)) is reported as 97 % of control.

With CC1(C)CN(c2ccccc2)N(CO)C1=O the T/C (dose: 6.25 mg/kg/injection, schedule: Q04DX003 (ip), vehicle: saline) was 101 % of control and the T/C (dose: 12.5 mg/kg/injection, schedule: Q04DX003 (ip), vehicle: saline) was 109 % of control.

For COC(=O)c1c2cccc(C)c2nc2c(C)cccc12, the T/C [17] was 107 % of control, the T/C [18] was 107 % of control and the T/C [19] was 100 % of control.

In the case of Cc1ccc(N2C(=S)N(c3cccc(Cl)c3Cl)C(=O)C(N=Nc3cccc(Cl)c3Cl)C2O)cc1 (centres undefined), the T/C (dose: 100.0 mg/kg/injection, schedule: Q01DX001 (ip), vehicle: Klucel (hydroxypropylcellulose) (HPC)) is reported as 97 % of control, the T/C (dose: 200.0 mg/kg/injection, schedule: Q01DX001 (ip), vehicle: Klucel (hydroxypropylcellulose) (HPC)) is reported as 98 % of control and the T/C (dose: 400.0 mg/kg/injection, schedule: Q01DX001 (ip), vehicle: Klucel (hydroxypropylcellulose) (HPC)) is reported as 97 % of control.

With CCC(=O)C(C)C1(C(=O)OC)NC(=S)NC(=O)C1C#N (centres undefined) the T/C (dose: 7.5 mg/kg/injection, schedule: Q01DX005 (ip), vehicle: saline with Tween-80) was 102 % of control, the T/C (dose: 15.0 mg/kg/injection, schedule: Q01DX005 (ip), vehicle: saline with Tween-80) was 99 % of control and the T/C (dose: 30.0 mg/kg/injection, schedule: Q01DX005 (ip), vehicle: saline with Tween-80) was 103 % of control.

Cc1nn(N)c2[nH]c(Cl)cc(=O)c12 was tested, and the T/C [17] was 97 % of control, the T/C [18] was 109 % of control and the T/C [19] was 116 % of control.

With CC(C)(OC(=O)c1ccc([N+](=O)[O-])cc1)C(=O)O the T/C [4] was 99 % of control, the T/C [5] was 98 % of control and the T/C [6] was 98 % of control.

In the case of CCOC1CN(C(=O)OC)N1C(=O)OC (centres undefined), the T/C [9] is reported as 100 % of control, the T/C [10] is reported as 107 % of control and the T/C [13] is reported as 105 % of control.

For c1ccc2c(c1)C(=NCCCN1CCCCCC1)c1cccn1-2, the T/C [17] was 100 % of control, the T/C [18] was 100 % of control and the T/C [19] was 100 % of control.

For C=Cc1ccc(NC(=O)CCn2ccc(N)nc2=O)cc1, the T/C [15] was 102 % of control, the T/C [16] was 102 % of control and the T/C (dose: 400.0 mg/kg/injection, schedule: Q01DX001 (ip), vehicle: saline with Tween-80) was 103 % of control.

In the case of Cn1c(O)c(C2=NC(C(=O)O)CS2)c(=O)n(C)c1=O (centres undefined), the T/C (dose: 60.0 mg/kg/injection, schedule: Q01DX005 (ip), vehicle: saline) is reported as 100 % of control, the T/C (dose: 120.0 mg/kg/injection, schedule: Q01DX005 (ip), vehicle: saline) is reported as 101 % of control and the T/C (dose: 240.0 mg/kg/injection, schedule: Q01DX005 (ip), vehicle: saline) is reported as 101 % of control.

With CCC12OCC(C)(C)N1OC(=O)N2c1ccccc1 (centres undefined) the T/C [20] was 96 % of control, the T/C [21] was 96 % of control and the T/C [22] was 97 % of control.

In the case of COC(=O)[C@@]12OC[C@]34[C@H]([C@@H](O)[C@@H]1O)[C@@]1(C)CC(=O)C(O)=C(C)[C@@H]1C[C@H]3OC(=O)[C@H](OC(=O)/C=C(\C)C(C)CO)[C@@H]24 (some centres undefined), the T/C (dose: 0.5 mg/kg/injection, schedule: Q01DX009 (ip), vehicle: saline + alcohol) is reported as 115 % of control.

C=CCC(O)CC1CC2CCCCN2O1 (centres undefined) was tested, and the T/C (dose: 50.0 mg/kg/injection, schedule: Q04DX003 (ip), vehicle: saline) was 104 % of control, the T/C [12] was 104 % of control and the T/C [14] was 99 % of control.

With COc1cc(NS(C)(=O)=O)ccc1Nc1c2ccc(Cl)cc2nc2c(OC)cccc12 the T/C (dose: 3.13 mg/kg/injection, schedule: Q01DX009 (ip), vehicle: saline) was 166 % of control, the T/C [7] was 195 % of control and the T/C (dose: 6.25 mg/kg/injection, schedule: Q04DX003 (ip), vehicle: saline with Tween-80) was 154 % of control. For the same compound, the T/C (dose: 8.25 mg/kg/injection, schedule: Q04DX003 (ip), vehicle: saline with Tween-80) was 179 % of control, the T/C [8] was 208 % of control and the T/C [11] was 170 % of control and 204 % of control. For the same compound, the T/C (dose: 18.75 mg/kg/injection, schedule: Q04DX003 (ip), vehicle: saline with Tween-80) was 229 % of control.

In the case of OC1Cc2ccccc2CC1NC1CCCCC1 (centres undefined), the T/C (dose: 50.0 mg/kg/injection, schedule: Q01DX005 (ip), vehicle: saline) is reported as 108 % of control and the T/C (dose: 100.0 mg/kg/injection, schedule: Q01DX005 (ip), vehicle: saline) is reported as 98 % of control.

C=Cc1c(Cl)nc(C)c(C)c1-c1ccc(OC)c(OC)c1OCc1ccccc1 was tested, and the T/C [20] was 92 % of control, the T/C [21] was 104 % of control and the T/C [22] was 91 % of control.
